# Assay results reported in ChEMBL document CHEMBL3627700, “Discovery of novel N-aryl piperazine CXCR4 antagonists” (Bioorg Med Chem Lett, 2015).
# Legend:
# [1] = test system: Human immunodeficiency virus 1; test: Antiviral activity against HIV1 3B assessed as inhibition of viral attachment to human MAGI cells; assay type: functional, organism-based; details: Human immunodeficiency virus 1, 3B
# [2] = Cytotoxicity against human MAGI cells; assay type: cell-based; details: read-out: TC50 (the source's name)
# [3] = target: T1, C-X-C chemokine receptor type 4 (Homo sapiens, UniProt P61073); test: Antagonist activity at CXCR4 in human Chem-1 cells assessed as inhibition of CXCL12-induced calcium flux; assay type: functional, cell-based
# [4] = Cytotoxicity against human Chem1 cells; assay type: cell-based; details: read-out: TC50 (the source's name)
# [5] = target: T1, C-X-C chemokine receptor type 4
# Description: Displacement of [125I]-SDF-1 from CXCR4 (unknown origin)
# [6] = Selectivity ratio of IC50 for CXCR4 in human Chem-1 cells to IC50 for HIV1 3B assessed as inhibition of viral attachment to human MAGI cells; assay type: cell-based
# [7] = test system: Human immunodeficiency virus 1; test: Antiviral activity against HIV1 3B infected in PBMC; assay type: functional, organism-based; details: Human immunodeficiency virus 1, 3B
# [8] = target: CYP2C19 (Homo sapiens, UniProt P33261); test: Inhibition of human CYP2C19 at 1 uM; assay type: ADME
# [9] = target: CYP2D6 (Homo sapiens, UniProt P10635); test: Inhibition of human CYP2D6 at 1 uM
# [10] = target: CYP3A4 (Homo sapiens, UniProt P08684); test: Inhibition of human CYP3A4 at 1 uM
# [11] = target: T2, hERG (KCNH2) (Homo sapiens, UniProt Q12809); test: Displacement of [3H]-dofetilide from human ERG in HEK293 cells at 1 uM; assay type: cell-based; details: HEK293 cells that express hERG, probe [3H]-dofetilide
# [12] = target: T2, hERG (KCNH2); test: Displacement of [3H]-dofetilide from human ERG in HEK293 cells at 10 uM; assay type: cell-based; details: HEK293 cells that express hERG, probe [3H]-dofetilide
# T1 sequence (P61073 whole entry): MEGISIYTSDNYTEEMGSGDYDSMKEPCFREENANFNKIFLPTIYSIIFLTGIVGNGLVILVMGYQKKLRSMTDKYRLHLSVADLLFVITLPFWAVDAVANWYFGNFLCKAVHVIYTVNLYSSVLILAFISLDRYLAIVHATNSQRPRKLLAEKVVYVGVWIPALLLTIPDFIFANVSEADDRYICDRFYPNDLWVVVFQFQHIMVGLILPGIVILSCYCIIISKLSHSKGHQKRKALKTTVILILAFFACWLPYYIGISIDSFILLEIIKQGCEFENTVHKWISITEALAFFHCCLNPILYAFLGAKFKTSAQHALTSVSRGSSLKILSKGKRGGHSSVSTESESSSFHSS
# CYP2C19, sequence (P33261 whole entry): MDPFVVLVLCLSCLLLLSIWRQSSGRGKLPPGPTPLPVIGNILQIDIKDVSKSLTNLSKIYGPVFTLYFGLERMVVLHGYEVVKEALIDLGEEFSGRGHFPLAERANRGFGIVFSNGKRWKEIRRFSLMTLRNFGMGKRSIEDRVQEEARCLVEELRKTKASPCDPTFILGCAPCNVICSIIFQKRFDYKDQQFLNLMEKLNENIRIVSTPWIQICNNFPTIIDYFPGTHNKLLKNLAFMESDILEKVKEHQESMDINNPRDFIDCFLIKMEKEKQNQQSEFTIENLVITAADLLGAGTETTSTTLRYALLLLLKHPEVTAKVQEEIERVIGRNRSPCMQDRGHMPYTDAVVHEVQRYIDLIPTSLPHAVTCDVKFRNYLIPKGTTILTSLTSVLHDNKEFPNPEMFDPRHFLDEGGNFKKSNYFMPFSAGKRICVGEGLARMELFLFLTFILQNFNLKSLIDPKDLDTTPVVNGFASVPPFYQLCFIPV
# CYP2D6, sequence (P10635 whole entry): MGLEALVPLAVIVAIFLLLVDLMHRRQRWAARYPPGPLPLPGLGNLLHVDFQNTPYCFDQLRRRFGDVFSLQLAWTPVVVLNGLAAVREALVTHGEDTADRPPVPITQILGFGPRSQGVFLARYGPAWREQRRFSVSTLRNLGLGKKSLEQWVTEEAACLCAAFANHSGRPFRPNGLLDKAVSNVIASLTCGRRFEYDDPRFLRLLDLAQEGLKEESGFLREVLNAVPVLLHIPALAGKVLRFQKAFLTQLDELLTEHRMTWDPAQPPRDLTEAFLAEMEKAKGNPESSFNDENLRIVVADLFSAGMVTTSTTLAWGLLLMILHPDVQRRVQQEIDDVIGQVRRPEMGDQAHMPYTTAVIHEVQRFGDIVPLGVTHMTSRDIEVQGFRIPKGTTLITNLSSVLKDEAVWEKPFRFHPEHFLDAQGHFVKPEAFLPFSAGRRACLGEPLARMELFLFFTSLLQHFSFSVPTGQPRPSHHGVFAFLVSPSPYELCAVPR
# T2 sequence (Q12809 whole entry): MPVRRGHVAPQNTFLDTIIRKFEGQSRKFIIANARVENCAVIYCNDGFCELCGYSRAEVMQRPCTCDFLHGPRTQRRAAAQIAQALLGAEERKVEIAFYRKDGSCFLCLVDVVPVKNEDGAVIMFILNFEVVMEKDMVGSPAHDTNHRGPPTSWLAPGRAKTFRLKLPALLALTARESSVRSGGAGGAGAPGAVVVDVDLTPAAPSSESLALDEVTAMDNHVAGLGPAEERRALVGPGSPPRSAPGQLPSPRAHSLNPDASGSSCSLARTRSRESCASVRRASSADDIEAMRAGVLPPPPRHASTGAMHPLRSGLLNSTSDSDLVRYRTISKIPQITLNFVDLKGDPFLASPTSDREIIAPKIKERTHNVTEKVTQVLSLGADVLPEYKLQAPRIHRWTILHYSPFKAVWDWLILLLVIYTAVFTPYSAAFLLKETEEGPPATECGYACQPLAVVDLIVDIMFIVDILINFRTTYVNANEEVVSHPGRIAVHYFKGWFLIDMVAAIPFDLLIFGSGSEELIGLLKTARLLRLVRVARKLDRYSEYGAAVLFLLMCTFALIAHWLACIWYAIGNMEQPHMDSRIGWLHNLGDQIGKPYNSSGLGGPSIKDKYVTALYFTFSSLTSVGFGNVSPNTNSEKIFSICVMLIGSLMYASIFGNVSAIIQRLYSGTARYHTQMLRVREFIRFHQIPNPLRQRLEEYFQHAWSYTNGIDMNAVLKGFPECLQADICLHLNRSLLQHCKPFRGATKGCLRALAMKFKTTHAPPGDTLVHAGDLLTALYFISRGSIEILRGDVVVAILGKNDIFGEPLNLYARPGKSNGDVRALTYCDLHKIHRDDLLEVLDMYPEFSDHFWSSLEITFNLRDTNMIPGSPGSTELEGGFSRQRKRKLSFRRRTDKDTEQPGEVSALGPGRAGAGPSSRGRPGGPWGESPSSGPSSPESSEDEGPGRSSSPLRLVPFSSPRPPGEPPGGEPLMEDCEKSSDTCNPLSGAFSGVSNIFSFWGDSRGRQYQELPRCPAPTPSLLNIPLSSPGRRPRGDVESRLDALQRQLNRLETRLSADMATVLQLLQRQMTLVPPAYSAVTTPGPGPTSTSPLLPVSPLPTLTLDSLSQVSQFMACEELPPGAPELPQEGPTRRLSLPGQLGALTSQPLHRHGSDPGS
# CYP3A4, sequence (P08684 whole entry): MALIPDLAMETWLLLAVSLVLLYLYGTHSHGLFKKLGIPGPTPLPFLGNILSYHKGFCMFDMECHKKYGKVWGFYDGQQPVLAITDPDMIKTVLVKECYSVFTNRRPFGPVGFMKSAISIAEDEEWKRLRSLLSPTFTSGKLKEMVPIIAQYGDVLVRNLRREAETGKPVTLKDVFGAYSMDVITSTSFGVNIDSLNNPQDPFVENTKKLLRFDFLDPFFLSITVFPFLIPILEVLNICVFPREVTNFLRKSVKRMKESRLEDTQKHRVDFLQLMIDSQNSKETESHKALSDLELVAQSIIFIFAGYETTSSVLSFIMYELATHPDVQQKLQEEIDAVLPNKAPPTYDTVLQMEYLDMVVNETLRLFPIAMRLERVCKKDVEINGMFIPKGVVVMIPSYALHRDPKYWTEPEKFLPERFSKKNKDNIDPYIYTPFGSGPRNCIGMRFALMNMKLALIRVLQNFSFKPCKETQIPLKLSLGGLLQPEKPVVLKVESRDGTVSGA
SMILES,IC50 [1] [nM],CC50 [2] [nM],IC50 [3] [nM],CC50 [4] [nM],further results
NCCCCN(C[C@H]1CNCCN1)[C@H]1CCCc2cccnc21,310,> 10000,255,> 10000,–
NCCCCN(C[C@@H]1CNCCN1)[C@H]1CCCc2cccnc21,1100,> 10000,1200,> 10000,–
NCCCCN(C[C@H]1CN(Cc2ccccc2)CCN1)[C@H]1CCCc2cccnc21,–,> 10000,230,> 10000,–
NCCCCN(C[C@@H]1CN(Cc2ccccc2)CCN1)[C@H]1CCCc2cccnc21,–,> 10000,190,> 10000,IC50 [5]: 2920 nM
NCCCCN(C[C@H]1CN(C(=O)c2ccccc2)CCN1)[C@H]1CCCc2cccnc21,60,> 10000,2,> 10000,–
NCCCCN(C[C@@H]1CN(C(=O)c2ccccc2)CCN1)[C@H]1CCCc2cccnc21,20,> 10000,6,> 10000,Ratio IC50 [6]: 0.3; IC50 [7]: 88 nM; inhibition at 1 µM [8]: 2%; inhibition at 1 µM [9]: 19%; inhibition at 1 µM [10]: 0%; inhibition at 1 µM [11]: 18%; inhibition at 10 µM [12]: 55%
NCCCCN(C[C@H]1CNCCN1C(=O)c1ccccc1)[C@H]1CCCc2cccnc21,> 100000,> 10000,–,> 10000,–
NCCCCN(C[C@@H]1CNCCN1C(=O)c1ccccc1)[C@H]1CCCc2cccnc21,> 100000,> 10000,–,> 10000,–
NCCCCN(C[C@@H]1CN(C(=O)c2ccco2)CCN1)[C@H]1CCCc2cccnc21,150,> 10000,35,> 10000,–
NCCCCN(C[C@H]1CN(C(=O)OCc2ccccc2)CCN1)[C@H]1CCCc2cccnc21,340,> 10000,18,> 10000,–
NCCCCN(C[C@@H]1CN(C(=O)OCc2ccccc2)CCN1)[C@H]1CCCc2cccnc21,1350,> 10000,–,> 10000,–
NCCCCN(C[C@H]1CN(S(=O)(=O)c2ccccc2)CCN1)[C@H]1CCCc2cccnc21,–,> 10000,2,> 10000,–
NCCCCN(C[C@@H]1CN(S(=O)(=O)c2ccccc2)CCN1)[C@H]1CCCc2cccnc21,–,> 10000,23,> 10000,inhibition at 1 µM [8]: 2%; inhibition at 1 µM [9]: 41%; inhibition at 1 µM [10]: 0%; inhibition at 1 µM [11]: 37%; inhibition at 10 µM [12]: 79%
NCCCCN(C[C@H]1CN(S(=O)(=O)c2ccc3ccccc3c2)CCN1)[C@H]1CCCc2cccnc21,4600,> 10000,71,> 10000,–
NCCCCN(C[C@H]1CN(S(=O)(=O)c2cc3ccccc3s2)CCN1)[C@H]1CCCc2cccnc21,3440,> 10000,39,> 10000,–
NCCCCN(C[C@H]1CN(S(=O)(=O)c2ccc(Cl)cc2)CCN1)[C@H]1CCCc2cccnc21,50,> 10000,2,> 10000,–
NCCCCN(C[C@H]1CN(C(=O)Nc2ccccc2)CCN1)[C@H]1CCCc2cccnc21,350,> 10000,–,> 10000,–
NCCCCN(CC1CN(c2ccccc2)CCN1)[C@H]1CCCc2cccnc21 (mixture of isomers),720,> 10000,130,> 10000,–
NCCCCN(CC1CN(C(=O)c2ccco2)CCN1)[C@H]1CCCc2cccnc21 (mixture of isomers),210,> 10000,–,> 10000,–
NCCCCN(Cc1nc2ccccc2[nH]1)[C@H]1CCCc2cccnc21 [MAVORIXAFOR],–,–,–,–,inhibition at 1 µM [8]: 20%; inhibition at 1 µM [9]: 100%
